Source: patent publication US9434684B2, “Oxime-substituted amide compound and pest control agent” (Nissan Chemical Industries, Ltd., priority 2012, dated 2016)

Key:
Botrytis cinerea = assay: Preventive effect against cucumber gray mold (mycelium inoculation); assay type: in vivo; conditions: 48 h, test solution A 500 ppm, 2 days
Experimental: Compounds of the present invention were dissolved in a solvent for emulsion (a mixture of Sorpol (registered trademark) 3005XL (manufactured by Toho Chemical Industry Co., Ltd.): N-methylpyrrolidone:Solvesso (registered trademark) 200 (manufactured by ExxonMobil Chemical) in a ratio of 1:5:2) to prepare 20% emulsifiable concentrates. Then, distilled water was added to dilute the emulsifiable concentrates to the predetermined concentration (500 ppm), and the obtained solutions were used in the following Test Examples 1 to 7. Cucumber (cultivar: Sagami Hanjiro) was planted in 90 cm^3 plastic pots, and in the seed leaf stage, 5 ml per pot of test solutions A of the compounds of the present invention were applied. On the next day, the pots were put in a plastic container, and agar blocks (diameter: 5 mm) containing Botrytis cinerea preliminarily cultivated in a PDA medium were inoculated to the seed leaves of the cucumber treated with the solutions. After the inoculation, the plastic container was covered with a plastic sheet and humidified, and placed at 20° C. for 2 days, whereupon the proportion of the formed lesion in the inoculated leaves was measured to calculate the control value in accordance with the same formula as in Test Example 1. Here, the test was carried out in duplicate.

Puccinia recondita = assay: Preventive effect against wheat brown leaf rust; assay type: in vivo; conditions: 216 h, test solution A 500 ppm, 1 + 8 days
Experimental: (§1) Compounds of the present invention were dissolved in a solvent for emulsion (a mixture of Sorpol (registered trademark) 3005XL (manufactured by Toho Chemical Industry Co., Ltd.): N-methylpyrrolidone:Solvesso (registered trademark) 200 (manufactured by ExxonMobil Chemical) in a ratio of 1:5:2) to prepare 20% emulsifiable concentrates. Then, distilled water was added to dilute the emulsifiable concentrates to the predetermined concentration (500 ppm), and the obtained solutions were used in the following Test Examples 1 to 7. To wheat (cultivar: Norin-61-go) in 1.3-leaf stage planted in 90 cm^3 plastic pots, 5 ml per pot of test solutions A of the compounds of the present invention were applied. On the next day, a suspension of spore of Puccinia recondita was spray-inoculated to the wheat, and the pots were placed in an inoculation chamber at 20° C. under a humidity of 100% for 1 day. Then, the pots were placed in an air-conditioned greenhouse (20° C.) for 8 days. The proportion of the formed lesion in the inoculated leaves was measured to calculate the control value in accordance with the same formula as in Test Example 1. Here, the test was carried out in duplicate.

[1] = system: Phaeosphaeria nodorum (synonym: Septoria nodorum); assay: Preventive effect against wheat glume blotch; assay type: in vivo; conditions: Parastagonospora nodorum, 192 h, test solution A 500 ppm, 2 + 6 days
Experimental: as §1, with “Haruyutaka)” for “Norin-61-go)”, “conidium” for “spore”, “Phaeosphaeria nodorum synonym: Septoria nodorum)” for “Puccinia recondita”, “2 days.” for “1 day.”, “6” for “8”

Meloidogyne incognita = assay: Preventive effect on Meloidogyne incognita (garden balsam seedlings, root knot); assay type: in vivo; conditions: 504 h, test solution B 100 ppm, 1 ml per seedling, 3 weeks, read-out: efficacy (damage degree, root knot, relative to non-treated plot)
Experimental: Compounds of the present invention were dissolved in dimethylsulfoxide to prepare 1% solutions. Then, distilled water was added to dilute the solutions to the predetermined concentration (100 ppm), and the obtained solutions were used in the following Test Examples 8 to 12. 1 ml per seedling of test solutions B of the compounds of the present invention were treated to the bases of garden balsam seedlings (about 2 weeks after budding) planted in a cell tray of which each cell was filled with 10 g of soil. 1 Hour after the application, 1 ml per cell of water containing Meloidogyne incognita 2 L larvae (100 2 L larvae/1 ml) was applied to the bases. The tray was placed in a greenhouse for 3 weeks, and the root knot level formed on the root was determined in accordance with the following damage index and the damage degree to calculate the efficacy (%) relative to the non-treated plot in accordance with the following formula. <Damage Index> 0: No knot observed. 1: Knot observed on a part of the root system. 2: Knot observed on the entire root system. 3: Large knot observed. 4: Large knot observed on the entire root system. [Damage degree]=[Σ(damage index×number of seedlings at each index)/(4×number of seedlings investigated)]×100 Efficacy(%)=[1−(damage degree in treated plot/damage degree in non-treated plot)]×100

melting point | SMILES | pest or weed control at 100 µg/mL (Meloidogyne incognita) | also measured
 | CON=C(CNC(=O)c1ccccc1C(F)(F)F)c1ncc(OC)cc1Cl [2-083, N-[2-(3-chloro-5-methoxypyridin-2-yl)-2-(methoxyimino)ethyl]-2-(trifluoromethyl)benzamide] |  | pest or weed control at 500 µg/mL (Botrytis cinerea): ≥ 70%
 | CC(C)(C)ON=C(CNC(=O)c1ccccc1C(F)(F)F)c1ncc(Cl)cc1Cl [2-139, N-[2-(3,5-dichloropyridin-2-yl)-2-(tert-butoxyimino)ethyl]-2-(trifluoromethyl)benzamide] |  | pest or weed control at 500 µg/mL [1]: ≥ 70%
100 to 102 °C | O=C(NC/C(=N/OCC(F)(F)F)c1ncc(Cl)cc1Cl)c1ccccc1C(F)(F)F [2-212, (Z)—N-[2-(3,5-dichloropyridin-2-yl)-2-(2,2,2-trifluoroethoxyimino)ethyl]-2-(trifluoromethyl)benzamide] | ≥ 50% | 
75 to 77 °C | CON=C(CN(C(=O)c1ccccc1C(F)(F)F)C1CC1)c1ncc(Cl)cc1Cl [4-007] |  | 
146 to 148 °C | CO/N=C(\CNC(=O)c1ccccc1C(F)(F)F)c1ccc(Cl)cc1Cl [Compound No. 1-004, (Z)—N-[2-(2,4-dichlorophenyl)-2-(methoxyimino)ethyl]-2-(trifluoromethyl)benzamide] |  | 
 | CC(C)ON=C(CNC(=O)c1ccccc1C(F)(F)F)c1ncc(Cl)cc1Cl [Compound No. 2-005, N-[2-(3,5-dichloropyridin-2-yl)-2-(isopropoxyimino)ethyl]-2-(trifluoromethyl)benzamide] |  | pest or weed control at 500 µg/mL (Puccinia recondita): ≥ 70%
 | CCC(C)ON=C(CNC(=O)c1ccccc1C(F)(F)F)c1ncc(Cl)cc1Cl (stereo not drawn) [Compound No. 2-009, N-[2-(3,5-dichloropyridin-2-yl)-2-(sec-butoxyimino)ethyl]-2-(trifluoromethyl)benzamide] | ≥ 50% | 
81 to 83 °C | CC(C)O/N=C(\CNC(=O)c1ccccc1C(F)(F)F)c1ncc(C(F)(F)F)cc1Cl [Compound No. 2-019, (E)-N-[2-[3-chloro-5-(trifluoromethyl)pyridin-2-yl]-2-(isopropoxyimino)ethyl]-2-(trifluoromethyl)benzamide] |  | 
98 to 101 °C | O=C(NC/C(=N\OCC1CC1)c1ncc(C(F)(F)F)cc1Cl)c1ccccc1C(F)(F)F [Compound No. 2-023, (E)-N-[2-[3-chloro-5-(trifluoromethyl)pyridin-2-yl]-2-(cyclopropylmethoxyimino)ethyl]-2-(trifluoromethyl)benzamide] |  | 
73 to 74 °C | O=C(NC/C(=N/OCC1CC1)c1ncc(C(F)(F)F)cc1Cl)c1ccccc1C(F)(F)F [Compound No. 2-024, (Z)—N-[2-[3-chloro-5-(trifluoromethyl)pyridin-2-yl]-2-(cyclopropylmethoxyimino)ethyl]-2-(trifluoromethyl)benzamide] | ≥ 50% | 
107 to 108 °C | CC(C)O/N=C(/CNC(=O)c1ccccc1C(F)(F)F)c1ncc(Cl)cc1Cl [Compound No. 2-128, (Z)—N-[2-(3,5-dichloropyridin-2-yl)-2-(isopropoxyimino)ethyl]-2-(trifluoromethyl)benzamide] | ≥ 50% | 
 | CC(C)O/N=C(\c1ncc(Cl)cc1Cl)[C@H](C)NC(=O)c1ccccc1C(F)(F)F [Compound No. 2-132, (S)—N-[2-(3,5-dichloropyridin-2-yl)-2-(Z)-(isopropoxyimino)-1-methylethyl]-2-(trifluoromethyl)benzamide] |  | pest or weed control at 500 µg/mL [1]: ≥ 70%
 | CC(ON=C(CNC(=O)c1ccccc1C(F)(F)F)c1ncc(Cl)cc1Cl)c1ccc(F)cc1 (stereo not drawn) [Compound No. 2-173, N-[2-(3,5-dichloropyridin-2-yl)-2-[1-(4-fluorophenyl)ethoxyimino]ethyl]-2-(trifluoromethyl)benzamide] | ≥ 50% | 
 | CC(O/N=C(/CNC(=O)c1ccccc1C(F)(F)F)c1ncc(Cl)cc1Cl)c1ccc(F)cc1 (stereo not drawn) [Compound No. 2-174, (Z)—N-[2-(3,5-dichloropyridin-2-yl)-2-[1-(4-fluorophenyl)ethoxyimino]ethyl]-2-(trifluoromethyl)benzamide] | ≥ 50% | pest or weed control at 500 µg/mL (Puccinia recondita): ≥ 70%
 | CC(C)ON=C(CNC(=O)c1ccccc1C(F)(F)F)c1ncc(Br)cc1Cl [Compound No. 2-181, N-[2-(5-bromo-3-chloropyridin-2-yl)-2-(isopropoxyimino)ethyl]-2-(trifluoromethyl)benzamide] | ≥ 50% | pest or weed control at 500 µg/mL [1]: ≥ 70%
60 to 62 °C | CCO/N=C(/CNC(=O)c1ccccc1C(F)(F)F)c1ncc(C(F)(F)F)cc1Cl [Compound No. 2-185, (Z)—N-[2-[3-chloro-5-(trifluoromethyl)pyridin-2-yl]-2-(ethoxyimino)ethyl]-2-(trifluoromethyl)benzamide] |  | 
85 to 86 °C | CO/N=C(/CNC(=O)c1ccccc1C(F)(F)F)c1ncc(Br)cc1Cl [Compound No. 2-216, (Z)—N-[2-(5-bromo-3-chloropyridin-2-yl)-2-(methoxyimino)ethyl]-2-(trifluoromethyl)benzamide] | ≥ 50% | pest or weed control at 500 µg/mL [1]: ≥ 70%
 | CON=C(CNC(=O)c1ccccc1C(F)(F)F)c1ncc(OCC(F)(F)F)cc1Cl [Compound No. 2-223, N-[2-[3-chloro-5-(2,2,2-trifluoroethoxy)pyridin-2-yl]-2-(methoxyimino)ethyl]-2-(trifluoromethyl)benzamide] |  | pest or weed control at 500 µg/mL (Botrytis cinerea): ≥ 70%
54 to 57 °C | CC(C)O/N=C(\CNC(=O)c1ccccc1C(F)(F)F)c1ncc(Cl)cc1Cl [Compound No. 2-239, (E)-N-[2-(3,5-dichloropyridin-2-yl)-2-(isopropoxyimino)ethyl]-2-(trifluoromethyl)benzamide] |  | 
 | CC(C)ON=C(CNC(=O)c1ccccc1C(F)(F)F)c1ncc(C#CC(C)(C)C)cc1Cl [Compound No. 2-248, N-[2-[3-chloro-5-(3,3-dimethyl-1-butynyl)pyridin-2-yl]-2-(isopropoxyimino)ethyl]-2-(trifluoromethyl)benzamide] |  | pest or weed control at 500 µg/mL (Puccinia recondita): ≥ 70%
 | CCON=C(CNC(=O)c1cn(C)nc1C(F)F)c1ncc(Cl)cc1Cl [Compound No. 17-004, N-[2-(3,5-dichloropyridin-2-yl)-2-(ethoxyimino)ethyl]-3-difluoromethyl-1-methyl-1H-pyrazole-4-carboxamide] |  | pest or weed control at 500 µg/mL [1]: ≥ 70%

SMILES | melting point | pest or weed control at 100 µg/mL (Meloidogyne incognita) | also measured
CCC(C)O/N=C(/CNC(=O)c1ccccc1C(F)(F)F)c1ncc(Cl)cc1Cl (stereo not drawn) [2-136, (Z)—N-[2-(3,5-dichloropyridin-2-yl)-2-(sec-butoxyimino)ethyl]-2-(trifluoromethyl)benzamide] | 68 to 70 °C |  | pest or weed control at 500 µg/mL (Puccinia recondita): ≥ 70%
